Reference: ChEMBL document CHEMBL3227934, “Cardioselectivity of beta-adrenoceptor blocking agents 1. 1-[(4-Hydroxyphenethyl)amino]-3-(aryloxy)propan-2-ols” (J Med Chem, 1979)

Experiments:
[1] = biological target: Beta-2 adrenergic receptor (Rattus norvegicus) (UniProt P10608)
Description: Displacement of [3H]DHA from beta2 adrenergic receptor in rat lung muscle by competitive binding assay

Rattus norvegicus = species on record: Rattus norvegicus; assay: Cardio selectivity ratio of Kapp for beta2 adrenergic receptor in rat lung muscle to Kapp for beta1 adrenergic receptor in rat ventricular muscle
[2] = biological target: Beta-1 adrenergic receptor (Rattus norvegicus) (UniProt P18090)
Beta-1 adrenergic receptor (Rattus norvegicus), sequence (P18090 whole entry, looked up): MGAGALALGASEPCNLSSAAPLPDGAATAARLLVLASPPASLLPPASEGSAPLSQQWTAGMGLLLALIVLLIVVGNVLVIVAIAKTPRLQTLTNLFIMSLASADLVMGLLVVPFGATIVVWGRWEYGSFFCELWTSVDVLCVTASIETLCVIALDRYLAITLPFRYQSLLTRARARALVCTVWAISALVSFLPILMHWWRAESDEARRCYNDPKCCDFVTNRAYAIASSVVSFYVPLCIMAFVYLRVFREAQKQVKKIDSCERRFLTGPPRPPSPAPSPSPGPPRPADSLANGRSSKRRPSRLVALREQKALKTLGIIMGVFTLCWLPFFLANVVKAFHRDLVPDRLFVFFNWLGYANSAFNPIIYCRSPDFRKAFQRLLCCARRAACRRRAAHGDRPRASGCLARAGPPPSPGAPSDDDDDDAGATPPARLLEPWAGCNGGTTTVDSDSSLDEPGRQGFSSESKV
Description: Displacement of [3H]DHA from beta1 adrenergic receptor in rat ventricular muscle by competitive binding assay

Beta-2 adrenergic receptor (Rattus norvegicus), sequence (P10608 whole entry, looked up): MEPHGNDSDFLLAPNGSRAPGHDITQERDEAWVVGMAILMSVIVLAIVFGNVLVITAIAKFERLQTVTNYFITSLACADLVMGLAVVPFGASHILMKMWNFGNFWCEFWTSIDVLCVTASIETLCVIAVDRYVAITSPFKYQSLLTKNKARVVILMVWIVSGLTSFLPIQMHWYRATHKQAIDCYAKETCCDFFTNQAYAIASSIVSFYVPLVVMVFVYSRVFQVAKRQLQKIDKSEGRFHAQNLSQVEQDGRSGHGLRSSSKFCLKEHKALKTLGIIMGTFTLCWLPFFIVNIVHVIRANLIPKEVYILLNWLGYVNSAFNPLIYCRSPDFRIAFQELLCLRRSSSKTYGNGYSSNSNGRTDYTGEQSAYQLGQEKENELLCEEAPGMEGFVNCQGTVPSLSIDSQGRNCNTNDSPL

For `COc1ccc(CCNCC(O)COc2ccc(NC(C)=O)cc2)cc1OC` (centres undefined), the Kapp [1] was 224 µM, the Ratio (Rattus norvegicus) was 32 and the Kapp [2] was 7 µM.

Work on `CCCCCC(=O)Nc1ccc(OCC(O)CNCCc2ccc(OC)c(OC)c2)c(Cl)c1` (centres undefined) yielded a Kapp [1] of 17 µM, a Ratio (Rattus norvegicus) of 53 and a Kapp [2] of 0.32 µM.

Work on `CC(C)NCC(O)COc1cccc2[nH]ccc12` (racemic) yielded a Kapp [2] of 0.014 µM.

`CC(=O)Nc1ccc(OCC(O)CNCCc2ccc(O)cc2)cc1` (centres undefined) showed a Kapp [1] of 88 µM, a Ratio (Rattus norvegicus) of 4.9 and a Kapp [2] of 18 µM.

`COc1ccc(CCNCC(O)COc2ccccc2)cc1OC` (centres undefined) gave a Kapp [1] of 1.8 µM, a Ratio (Rattus norvegicus) of 4.7 and a Kapp [2] of 0.38 µM.

In the case of `CC(C)NCC(O)COc1ccccc1` (centres undefined), the Kapp [1] is reported as 0.37 µM, the Ratio (Rattus norvegicus) is reported as 1.5 and the Kapp [2] is reported as 0.24 µM.

For `Oc1ccc(CCNCC(O)COc2ccccc2)cc1` (centres undefined), the Kapp [1] was 0.24 µM, the Ratio (Rattus norvegicus) was 0.3 and the Kapp [2] was 0.7 µM.

`CCCCCC(=O)Nc1ccc(OCC(O)CNCCc2ccc(O)cc2)cc1` (centres undefined) showed a Kapp [1] of 39 µM, a Ratio (Rattus norvegicus) of 10 and a Kapp [2] of 3.9 µM.

For `C=CCc1ccccc1OCC(O)CNC(C)C` (racemic), the Kapp [1] was 0.02 µM, the Ratio (Rattus norvegicus) was 2.6 and the Kapp [2] was 0.0077 µM.

`CCCCCC(=O)Nc1ccc(OCC(O)CNCCc2ccc(OC)c(OC)c2)cc1` (centres undefined) showed a Kapp [1] of 27 µM, a Ratio (Rattus norvegicus) of 77 and a Kapp [2] of 0.35 µM.

`C=CCc1ccccc1OCC(O)CNCCc1ccc(O)cc1` (centres undefined) showed a Kapp [1] of 0.27 µM, a Ratio (Rattus norvegicus) of 1.3 and a Kapp [2] of 0.2 µM.

`CC(=O)Nc1ccccc1OCC(O)CNCCc1ccc(O)cc1` (centres undefined) showed a Kapp [1] of 16 µM, a Ratio (Rattus norvegicus) of 7.6 and a Kapp [2] of 2.1 µM.

`O=C1CCCc2c(OCC(O)CNCCc3ccc(O)cc3)cccc21` (centres undefined) showed a Kapp [1] of 0.56 µM, a Ratio (Rattus norvegicus) of 1.5 and a Kapp [2] of 0.37 µM.

Work on `CCCCCC(=O)Nc1ccc(OCC(O)CNCCc2ccc(O)cc2)c(Cl)c1` (centres undefined) yielded a Kapp [1] of 14 µM, a Ratio (Rattus norvegicus) of 5 and a Kapp [2] of 2.7 µM.

`CC(=O)Nc1ccc(OCC(O)CNC(C)C)cc1` (racemic) showed a Kapp [1] of 313 µM, a Ratio (Rattus norvegicus) of 17 and a Kapp [2] of 18 µM.

Compound `CCCCCC(=O)Nc1ccc(OCC(O)CNC(C)C)cc1` (centres undefined) has a Kapp [1] of 34 µM, a Ratio (Rattus norvegicus) of 16 and a Kapp [2] of 2.2 µM.

Compound `CC(C)(C)NCC(O)COc1cccc2c1CCCC2=O` (centres undefined) has a Kapp [1] of 0.017 µM, a Ratio (Rattus norvegicus) of 1.1 and a Kapp [2] of 0.015 µM.
